Where two headings read alike, the source gives them in different places.
Experiments:
[1] = 30 ppm cyclamate in acidic water; one panelist
Description: (§1) Ingredients were added to water while stirring until solids were visibly dissolved and the sample was poured into a glass bottle and stored at 4° C.
(§2) Taste tests were carried out with one panelist. Bottles were removed from the refrigerator and about 25 ml of beverage was poured into 4 oz-plastic cups. The panelist was given mineral water to rinse their mouth before tasting and between tasting different samples. Unsalted crackers were also given to eat followed by rinsing the mouth with mineral water before tasting the next sample.
(§3) Initially, the panelist was asked to determine the sweetness of the 30 ppm of cyclamate (Table 1).
The panelist was asked to compare the taste profile of (i) a sample of 150 ppm rebaudioside M in acidic water and (ii) a sample of 150 ppm rebaudioside M and 30 ppm cyclamate (below the sweetness recognition threshold concentration) in acidic water. The panelist was asked to compare the sweetness and taste profiles of the two samples.

[2] = 30 ppm cyclamate in acidic water; one panelist; remark: listed apart in the source
Description: as §1, §2, §3

[3] = Taste evaluation, sweetness compared to control sucrose acidic water solutions (Example 1); assay type: in vivo, human; conditions: samples with 320 ppm rebaudioside M in acidic water (citric acid); one panelist; controls 8%, 9%, 10% sucrose
From the text: The panelist was instructed to sip, evaluate the sweetness, and then spit the sample in cups provided for that purpose.

Row | Compound | sweetness of cyclamate alone [1] | sweetness of cyclamate alone [2] | sweetness compared to control sucrose acidic water solutions [3]
1 | O=S(=O)([O-])NC1CCCCC1.[Na+] [cyclamate, sodium cyclamate] | not sweet | not sweet | 
2 | C=C1C[C@@]23CC[C@H]4[C@@](C)(CCC[C@@]4(C)C(=O)O[C@@H]4O[C@H](CO)[C@@H](O)[C@H](O[C@@H]5O[C@H](CO)[C@@H](O)[C@H](O)[C@H]5O)[C@H]4O[C@@H]4O[C@H](CO)[C@@H](O)[C@H](O)[C@H]4O)[C@@H]2CC[C@]1(O[C@@H]1O[C@H](CO)[C@@H](O)[C@H](O[C@@H]2O[C@H](CO)[C@@H](O)[C@H](O)[C@H]2O)[C@H]1O[C@@H]1O[C@H](CO)[C@@H](O)[C@H](O)[C@H]1O)C3 [rebaudioside M] |  |  | < 8%

From patent publication US12465065B2, “Method of preparing beverages with enhanced sweetness with cyclamate” (The Coca-Cola Company, priority 2017, dated 2025)
